Molecules are shown by their SMILES.

The target of experiment [1] is T1, Dual specificity tyrosine-phosphorylation-regulated kinase 2 (Homo sapiens) (UniProt Q92630).
T1 sequence (whole entry): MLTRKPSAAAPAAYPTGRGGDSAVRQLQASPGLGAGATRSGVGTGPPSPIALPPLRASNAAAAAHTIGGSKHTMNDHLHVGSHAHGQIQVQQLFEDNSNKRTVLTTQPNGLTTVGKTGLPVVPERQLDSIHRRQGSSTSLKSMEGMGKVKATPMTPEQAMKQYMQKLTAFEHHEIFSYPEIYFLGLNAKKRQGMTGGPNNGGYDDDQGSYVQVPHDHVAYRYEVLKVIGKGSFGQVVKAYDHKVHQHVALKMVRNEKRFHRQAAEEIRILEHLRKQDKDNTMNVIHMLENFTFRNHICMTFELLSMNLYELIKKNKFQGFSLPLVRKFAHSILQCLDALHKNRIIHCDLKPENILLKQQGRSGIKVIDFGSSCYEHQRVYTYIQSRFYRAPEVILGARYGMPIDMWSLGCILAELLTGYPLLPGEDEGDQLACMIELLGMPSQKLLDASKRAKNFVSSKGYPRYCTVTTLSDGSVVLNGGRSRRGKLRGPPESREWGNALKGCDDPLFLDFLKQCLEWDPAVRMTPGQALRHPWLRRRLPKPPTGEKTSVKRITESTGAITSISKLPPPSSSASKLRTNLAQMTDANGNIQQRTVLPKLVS
Put plainly: Percentage DYRK2 activity remaining in the presence of 0.01uM inhibitor.

Experiment [2] addresses Mitogen-activated protein kinase 14 (Homo sapiens, UniProt Q16539). Put plainly: Percentage p38alpha activity remaining in the presence of 0.01uM inhibitor.
The target of experiment [3] is Ribosomal protein S6 kinase beta-1 (Homo sapiens, UniProt P23443). Put plainly: Percentage S6K1 activity remaining in the presence of 0.01uM inhibitor.
Experiment [4] has as its target Homeodomain-interacting protein kinase 2 (Homo sapiens) (UniProt Q9H2X6). Put plainly: Percentage HIPK2 activity remaining in the presence of 0.01uM inhibitor.
Experiment [5] deals with T2, Serine/threonine-protein kinase Sgk1 (Homo sapiens) (UniProt O00141).
T2 sequence (whole entry): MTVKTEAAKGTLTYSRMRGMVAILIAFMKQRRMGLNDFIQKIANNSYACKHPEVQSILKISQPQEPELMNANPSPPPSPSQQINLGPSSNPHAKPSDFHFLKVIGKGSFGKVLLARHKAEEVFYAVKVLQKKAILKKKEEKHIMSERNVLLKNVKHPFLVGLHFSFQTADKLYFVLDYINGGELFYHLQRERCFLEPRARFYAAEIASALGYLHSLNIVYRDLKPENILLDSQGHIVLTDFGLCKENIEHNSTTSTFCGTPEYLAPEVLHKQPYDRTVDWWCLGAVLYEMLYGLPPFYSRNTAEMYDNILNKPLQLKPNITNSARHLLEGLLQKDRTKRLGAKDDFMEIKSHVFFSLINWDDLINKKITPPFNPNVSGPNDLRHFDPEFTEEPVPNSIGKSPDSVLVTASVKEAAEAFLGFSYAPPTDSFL
The experiment in a line: Percentage SGK1 activity remaining in the presence of 0.01uM inhibitor.

Experiment [6] has as its target T3, Dual specificity tyrosine-phosphorylation-regulated kinase 3 (Homo sapiens) (UniProt O43781).
T3 sequence (whole entry): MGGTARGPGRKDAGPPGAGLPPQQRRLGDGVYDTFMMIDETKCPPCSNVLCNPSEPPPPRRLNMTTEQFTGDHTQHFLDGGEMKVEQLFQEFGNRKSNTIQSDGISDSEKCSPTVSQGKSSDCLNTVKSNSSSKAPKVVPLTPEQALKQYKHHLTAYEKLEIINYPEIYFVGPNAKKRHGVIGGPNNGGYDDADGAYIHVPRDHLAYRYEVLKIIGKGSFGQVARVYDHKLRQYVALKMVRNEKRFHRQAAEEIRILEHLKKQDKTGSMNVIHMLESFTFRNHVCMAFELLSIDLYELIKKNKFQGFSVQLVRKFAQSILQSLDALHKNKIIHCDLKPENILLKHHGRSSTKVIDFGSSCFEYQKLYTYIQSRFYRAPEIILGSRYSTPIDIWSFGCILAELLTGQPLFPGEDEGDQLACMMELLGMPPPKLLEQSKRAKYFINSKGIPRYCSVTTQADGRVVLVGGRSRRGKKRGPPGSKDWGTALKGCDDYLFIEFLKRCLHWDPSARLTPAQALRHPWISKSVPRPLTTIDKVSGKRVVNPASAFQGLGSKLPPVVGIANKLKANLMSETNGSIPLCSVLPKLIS
Put plainly: Percentage DYRK3 activity remaining in the presence of 0.01uM inhibitor.

Experiment [7] addresses Serine/threonine-protein kinase PAK 5 (Homo sapiens) (UniProt Q9P286). Put plainly: Percentage PAK5 activity remaining in the presence of 0.01uM inhibitor.
The target of experiment [8] is RAC-alpha serine/threonine-protein kinase (Homo sapiens) (UniProt P31749). Put plainly: Percentage PKBalpha activity remaining in the presence of 0.01uM inhibitor.
The target in experiment [9] is Serine/threonine-protein kinase pim-3 (Homo sapiens, UniProt Q86V86). Put plainly: Percentage PIM3 activity remaining in the presence of 0.01uM inhibitor.
Experiment [10] concerns the target Mitogen-activated protein kinase 10 (Homo sapiens) (UniProt P53779). Put plainly: Percentage JNK3 activity remaining in the presence of 0.01uM inhibitor.
In experiment [11] the target is T4, Serine/threonine-protein kinase Chk1 (Homo sapiens) (UniProt O14757).
T4 sequence (whole entry): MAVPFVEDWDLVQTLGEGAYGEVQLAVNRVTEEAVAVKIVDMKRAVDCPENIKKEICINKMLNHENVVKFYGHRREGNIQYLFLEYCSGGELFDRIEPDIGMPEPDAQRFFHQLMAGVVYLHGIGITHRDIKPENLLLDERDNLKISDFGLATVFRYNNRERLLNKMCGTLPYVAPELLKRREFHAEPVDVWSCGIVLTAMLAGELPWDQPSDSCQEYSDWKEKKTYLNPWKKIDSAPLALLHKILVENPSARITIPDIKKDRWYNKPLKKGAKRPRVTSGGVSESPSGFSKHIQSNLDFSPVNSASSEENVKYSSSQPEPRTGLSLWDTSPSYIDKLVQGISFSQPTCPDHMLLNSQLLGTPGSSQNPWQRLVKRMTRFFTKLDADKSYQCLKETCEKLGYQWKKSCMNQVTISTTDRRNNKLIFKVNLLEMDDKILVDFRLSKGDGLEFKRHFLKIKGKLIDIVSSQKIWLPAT
The experiment in a line: Percentage CHK1 activity remaining in the presence of 0.01uM inhibitor.

In experiment [12] the target is Mitogen-activated protein kinase 9 (Homo sapiens, UniProt P45984). Put plainly: Percentage JNK2 activity remaining in the presence of 0.01uM inhibitor.
Experiment [13] addresses cAMP-dependent protein kinase catalytic subunit alpha (Homo sapiens, UniProt P17612). The experiment in a line: Percentage PKA activity remaining in the presence of 0.01uM inhibitor.
Experiment [14] addresses Homeodomain-interacting protein kinase 3 (Homo sapiens) (UniProt Q9H422). The experiment in a line: Percentage HIPK3 activity remaining in the presence of 0.01uM inhibitor.

Sequence of Homeodomain-interacting protein kinase 2 (Homo sapiens) (Q9H2X6 whole entry, looked up): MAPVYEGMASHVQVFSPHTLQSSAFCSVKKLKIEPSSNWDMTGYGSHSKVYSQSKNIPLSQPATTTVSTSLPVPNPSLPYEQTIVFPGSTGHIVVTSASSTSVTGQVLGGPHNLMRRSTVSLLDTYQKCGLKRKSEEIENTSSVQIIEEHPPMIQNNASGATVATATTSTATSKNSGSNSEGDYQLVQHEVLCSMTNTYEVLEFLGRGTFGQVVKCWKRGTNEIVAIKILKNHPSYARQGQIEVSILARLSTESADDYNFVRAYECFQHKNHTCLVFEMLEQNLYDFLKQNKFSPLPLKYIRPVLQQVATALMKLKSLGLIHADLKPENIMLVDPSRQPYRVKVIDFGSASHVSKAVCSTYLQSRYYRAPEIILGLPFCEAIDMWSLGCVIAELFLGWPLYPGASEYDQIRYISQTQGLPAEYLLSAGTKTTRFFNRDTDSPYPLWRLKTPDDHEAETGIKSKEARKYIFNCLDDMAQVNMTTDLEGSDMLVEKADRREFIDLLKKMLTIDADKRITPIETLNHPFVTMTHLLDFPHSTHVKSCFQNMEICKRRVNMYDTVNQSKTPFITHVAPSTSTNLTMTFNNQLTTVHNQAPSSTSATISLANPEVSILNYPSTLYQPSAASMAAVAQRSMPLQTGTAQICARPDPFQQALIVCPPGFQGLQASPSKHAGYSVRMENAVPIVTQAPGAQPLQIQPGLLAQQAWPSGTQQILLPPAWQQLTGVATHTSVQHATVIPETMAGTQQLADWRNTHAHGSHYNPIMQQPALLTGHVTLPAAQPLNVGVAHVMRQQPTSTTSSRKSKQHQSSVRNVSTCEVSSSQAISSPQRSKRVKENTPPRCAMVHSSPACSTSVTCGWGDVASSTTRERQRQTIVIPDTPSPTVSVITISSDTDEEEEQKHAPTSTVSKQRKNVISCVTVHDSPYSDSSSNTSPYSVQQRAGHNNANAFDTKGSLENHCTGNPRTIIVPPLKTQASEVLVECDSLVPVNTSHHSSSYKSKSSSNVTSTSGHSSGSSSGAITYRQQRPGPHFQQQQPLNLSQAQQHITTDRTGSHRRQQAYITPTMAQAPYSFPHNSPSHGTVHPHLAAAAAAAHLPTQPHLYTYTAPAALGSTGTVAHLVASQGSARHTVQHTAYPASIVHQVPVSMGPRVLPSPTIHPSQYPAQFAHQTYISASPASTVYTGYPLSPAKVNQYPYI
Sequence of Mitogen-activated protein kinase 9 (P45984 whole entry, looked up): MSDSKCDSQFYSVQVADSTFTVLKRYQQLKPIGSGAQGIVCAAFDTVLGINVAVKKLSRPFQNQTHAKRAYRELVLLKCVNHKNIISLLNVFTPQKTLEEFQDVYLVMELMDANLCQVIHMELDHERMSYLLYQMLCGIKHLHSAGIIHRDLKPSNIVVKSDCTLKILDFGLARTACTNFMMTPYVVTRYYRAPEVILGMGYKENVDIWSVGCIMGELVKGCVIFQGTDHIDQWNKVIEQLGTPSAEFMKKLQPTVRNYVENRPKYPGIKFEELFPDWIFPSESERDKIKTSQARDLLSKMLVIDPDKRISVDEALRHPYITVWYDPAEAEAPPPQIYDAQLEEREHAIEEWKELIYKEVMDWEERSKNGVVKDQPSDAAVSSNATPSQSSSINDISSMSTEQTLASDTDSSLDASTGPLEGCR
Sequence of RAC-alpha serine/threonine-protein kinase (Homo sapiens) (P31749 whole entry): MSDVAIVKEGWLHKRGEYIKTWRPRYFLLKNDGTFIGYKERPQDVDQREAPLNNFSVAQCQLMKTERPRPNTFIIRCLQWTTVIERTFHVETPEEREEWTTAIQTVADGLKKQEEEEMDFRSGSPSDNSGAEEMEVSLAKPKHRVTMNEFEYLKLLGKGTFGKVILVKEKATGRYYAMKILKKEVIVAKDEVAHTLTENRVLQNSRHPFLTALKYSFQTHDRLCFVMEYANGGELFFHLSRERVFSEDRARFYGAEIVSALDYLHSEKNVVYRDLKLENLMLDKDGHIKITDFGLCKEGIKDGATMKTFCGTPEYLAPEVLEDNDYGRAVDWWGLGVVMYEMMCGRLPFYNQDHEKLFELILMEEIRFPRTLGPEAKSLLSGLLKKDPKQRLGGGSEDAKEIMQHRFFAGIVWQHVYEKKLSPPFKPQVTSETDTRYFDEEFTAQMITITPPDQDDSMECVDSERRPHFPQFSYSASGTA
Sequence of Mitogen-activated protein kinase 14 (Q16539 whole entry): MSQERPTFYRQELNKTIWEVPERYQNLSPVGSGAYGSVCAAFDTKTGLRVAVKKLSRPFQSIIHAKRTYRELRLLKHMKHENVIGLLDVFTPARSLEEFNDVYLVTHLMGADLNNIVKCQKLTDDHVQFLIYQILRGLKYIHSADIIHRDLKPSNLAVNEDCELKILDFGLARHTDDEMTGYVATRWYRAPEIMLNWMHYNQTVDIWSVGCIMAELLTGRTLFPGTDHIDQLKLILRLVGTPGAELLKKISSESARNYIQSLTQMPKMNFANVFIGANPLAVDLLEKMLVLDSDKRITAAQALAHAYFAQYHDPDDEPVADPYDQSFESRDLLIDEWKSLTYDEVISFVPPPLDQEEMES
Sequence of Mitogen-activated protein kinase 10 (Homo sapiens) (P53779 whole entry): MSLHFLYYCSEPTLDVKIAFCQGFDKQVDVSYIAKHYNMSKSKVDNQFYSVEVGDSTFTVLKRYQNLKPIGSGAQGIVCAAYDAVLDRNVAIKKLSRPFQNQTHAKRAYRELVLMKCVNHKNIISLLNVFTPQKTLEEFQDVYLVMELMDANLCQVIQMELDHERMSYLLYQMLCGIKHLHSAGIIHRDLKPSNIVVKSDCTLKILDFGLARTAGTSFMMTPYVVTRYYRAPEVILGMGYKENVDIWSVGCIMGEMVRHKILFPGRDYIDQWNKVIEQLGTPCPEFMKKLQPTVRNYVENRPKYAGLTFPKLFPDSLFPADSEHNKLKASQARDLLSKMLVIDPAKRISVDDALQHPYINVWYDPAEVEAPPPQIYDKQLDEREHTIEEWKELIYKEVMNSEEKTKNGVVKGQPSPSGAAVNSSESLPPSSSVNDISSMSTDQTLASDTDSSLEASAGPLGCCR
Sequence of Serine/threonine-protein kinase PAK 5 (Homo sapiens) (Q9P286 whole entry, looked up): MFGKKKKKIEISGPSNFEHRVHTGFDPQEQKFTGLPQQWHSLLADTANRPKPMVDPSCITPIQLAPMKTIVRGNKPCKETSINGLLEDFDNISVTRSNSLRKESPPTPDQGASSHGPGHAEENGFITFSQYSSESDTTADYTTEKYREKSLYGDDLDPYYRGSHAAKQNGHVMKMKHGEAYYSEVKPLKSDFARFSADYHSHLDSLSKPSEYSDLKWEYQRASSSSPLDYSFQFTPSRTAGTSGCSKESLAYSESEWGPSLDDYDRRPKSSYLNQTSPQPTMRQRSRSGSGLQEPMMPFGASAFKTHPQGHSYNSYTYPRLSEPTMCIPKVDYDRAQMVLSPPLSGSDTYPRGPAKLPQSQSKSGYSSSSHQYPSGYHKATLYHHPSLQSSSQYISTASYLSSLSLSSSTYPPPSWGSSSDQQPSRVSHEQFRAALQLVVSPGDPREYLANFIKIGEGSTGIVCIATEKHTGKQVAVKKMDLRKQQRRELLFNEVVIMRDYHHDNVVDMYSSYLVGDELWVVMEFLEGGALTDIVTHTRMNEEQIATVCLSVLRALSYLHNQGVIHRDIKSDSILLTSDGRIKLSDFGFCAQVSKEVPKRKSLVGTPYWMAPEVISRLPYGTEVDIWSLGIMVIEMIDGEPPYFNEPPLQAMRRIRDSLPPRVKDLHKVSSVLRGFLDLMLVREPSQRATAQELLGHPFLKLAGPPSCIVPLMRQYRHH
Sequence of Ribosomal protein S6 kinase beta-1 (P23443 whole entry, looked up): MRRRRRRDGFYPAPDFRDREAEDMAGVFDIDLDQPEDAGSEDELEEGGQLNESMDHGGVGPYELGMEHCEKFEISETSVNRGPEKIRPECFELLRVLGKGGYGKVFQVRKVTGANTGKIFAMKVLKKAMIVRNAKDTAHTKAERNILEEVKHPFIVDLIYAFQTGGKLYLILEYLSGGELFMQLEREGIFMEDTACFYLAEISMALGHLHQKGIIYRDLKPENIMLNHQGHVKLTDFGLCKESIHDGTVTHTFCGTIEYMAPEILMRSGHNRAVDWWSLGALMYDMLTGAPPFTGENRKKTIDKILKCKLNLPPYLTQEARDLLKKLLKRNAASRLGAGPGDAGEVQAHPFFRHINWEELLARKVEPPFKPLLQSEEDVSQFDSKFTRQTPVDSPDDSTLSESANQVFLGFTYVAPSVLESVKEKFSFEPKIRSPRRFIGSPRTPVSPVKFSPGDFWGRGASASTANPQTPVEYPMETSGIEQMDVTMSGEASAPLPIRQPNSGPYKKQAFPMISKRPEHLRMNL

Consider `Cc1n[nH]c2ccc(-c3cncc(OC[C@@H](N)Cc4c[nH]c5ccccc45)c3)cc12`, for which the Activity was 79% in experiment [1]; 131% in [2]; 88% in experiment [3]; 73% in experiment [4]; 78% in experiment [5]; 41% in experiment [6] (filed as antagonist). Moreover, the Activity is 104% in experiment [7]; 5% in experiment [8] (filed as antagonist); 54% in [9]; 81% in experiment [10]; 100% in [11]; 94% in experiment [12]. The Activity is 26% in [13] (filed as antagonist) and 90% in experiment [14].

Take `O=C(NCCCNc1nc(Nc2cccc(NC(=O)N3CCCC3)c2)ncc1I)c1cccs1`: the Activity in experiment [1] was 105%; in [2], 86%; in experiment [3] it was 100%; in experiment [4], 95%; in experiment [5], 87%; in [6] it was 85%. The Activity was found to be 97% in experiment [7]; 90% in [8]; 96% in experiment [9]; 93% in experiment [10]; 84% in experiment [11]; 101% in [12]. The Activity in experiment [13] was 102%; in experiment [14], 95%.

Take `CN[C@@H]1C[C@H]2O[C@@](C)([C@@H]1OC)n1c3ccccc3c3c4c(c5c6ccccc6n2c5c31)C(=O)N[C@H]4O` (stereo in doubt): the Activity was 92% in [1]; 105% in experiment [2]; 96% in experiment [3]; 109% in experiment [4]; 83% in experiment [5]; 84% in [6]. Further, the Activity in experiment [7] (filed as antagonist) is 36%; in [8], 79%; in experiment [9] (filed as antagonist), 8%; in experiment [10], 107%; in experiment [11] (filed as antagonist), 12%; in experiment [12] it was 92%. Also, the Activity is 63% in experiment [13] and 116% in experiment [14].

The values are drawn from ChEMBL document CHEMBL1150976, “The selectivity of protein kinase inhibitors: a further update” (Biochem J, 2007).
